Test results taken from patent publication US20250302813A1, “RECOMBINANT METHIONINASE IN THE TREATMENT OF CANCER” (ANTICANCER INC, priority 2024, published 2025).
pIC50: −log10 of the molar value. Where two headings read alike, the source gives them in different places.

How the values were obtained:
[1] = tested on: HCT-116 human colon cancer cell line; experiment: Cell viability testing of HCT-116 cells (Cell Counting Kit-8, WST-8 reagent); type: cell-based; conditions: for pIC50: Homo sapiens
Description: Cell culture: The HCT-116 human colon cancer cell line was acquired from the American Type Culture Collection (Manassas, VA, USA). The cells were grown in Dulbecco's […] medium (DMEM) with 10% fetal bovine serum and 100 IU/ml of penicillin/streptomycin.
Cell viability testing: HCT-116 cells were cultivated at subconfluence overnight in Dulbecco's modified Eagle's medium in 96-well plates (1.0×10^3 cells per well). The following day, HCT-116 cells were treated with concentrations of rMETase ranging from 0.125 to 8 U/ml or regorafenib ranging from 0.25 μM to 16 μM. Regorafenib was purchased from MedChemExpress (Monmouth Junction, NJ, USA). After 72 h of treatment, cell viability was assessed using the Cell Counting Kit-8 (Dojindo Laboratory, Kumamoto, Japan) with the WST-8 reagent.
ImageJ version 1.53 (National Institutes of Health, Bethesda, MD, USA) was applied to calculate IC50 values and sensitivity curves. After calculating the half-maximal inhibitory concentration (IC50) for rMETase and regorafenib, the […]. concentrations of both drugs were used to determine the synergistic efficacy of the combination of the drugs. Finally, the IC50 study was repeated for regorafenib on HCT-116 cells treated in combination with the IC50 concentration of rMETase to examine whether methionine restriction increased the efficacy of regorafenib. Each experiment was carried out in triplicate.
Statistics: GraphPad Prism 9.4.0 (GraphPad Software, Inc., San Diego, CA, USA) was used to conduct all statistical analyses. Tukey's multiple comparison test was performed for the parametric test of comparison between groups. All data are presented as the mean and standard deviation. The significance level was p≤0.05.

[2] = tested on: human colorectal cancer cell line; conditions: in vitro; cited from earlier work
[3] = patients; oral regorafenib; cited from earlier work

In the case of “rMETase: recombinant methioninase produced by fermentation of recombinant Escherichia coli transformed with the methioninase gene from Pseudomonas putida”, the “IC50 of rMETase on HCT-116 cells” value ([1]; rMETase alone, 72 h treatment, WST-8) was 0.61 U/ml.
In the case of CNC(=O)c1cc(Oc2ccc(NC(=O)Nc3ccc(Cl)c(C(F)(F)F)c3)c(F)c2)ccn1 [regorafenib, 4-[4-[[4-chloro-3-(trifluoromethyl)phenyl]carbamoylamino]-3-fluorophenoxy]-N-methylpyridine-2-carboxamide], the pIC50 ([1]; HCT-116, 72 h, addition of rMETase at 0.61 U/ml (its IC50), 72 h, WST-8, read-out: IC50 of regorafenib in combination with rMETase) was 5.84, the pIC50 ([1]; HCT-116, 72 h, regorafenib alone, 72 h treatment, WST-8, read-out: IC50 of regorafenib on HCT-116 cells) was 5.66 and the pIC50 ([1]; HCT-116, regorafenib alone, read-out: IC50 of regorafenib alone on HCT-116 cells (printed in U/ml)) was 5.65. The “Increase of intracellular S-adenosyl-L-methionine (SAM) level compared to the control” value [2] was 34.5% and the “Time to appearance of toxicity after the start of treatment (severe skin rash, diarrhea, hypertension, fatigue)” value [3] was 3 to 4 days.
